Source: patent publication US20120165325A1, “Stable forms of N-(2,6-Dimethyl-4-morpholin-4-yl-phenyl)-3,3-dimethyl-butyramide” (H. Lundbeck A/S, priority 2009, published 2012)
Marks after values point to notes of the source that are not given here.

How the values were obtained:
[1] = system: Male Wistar rats; assay: Amphetamine challenge: antagonism of d-amphetamine induced hyperactivity; format: in vivo; conditions: rat; s.c. 30 min before d-amphetamine sulphate 0.5 mg/kg; motility over 2 hours; std. dev. in brackets
Procedure: Subjects. Male Wistar rats (Taconic, Denmark) weighing 170-240 g are used. The animals were housed under a 12-hr light/dark cycle under controlled conditions for regular in-door temperature (21±2° C.) and humidity (55±5%) with food and tap water available ad libitum. Eight rats were used at each dose level and in the parallel control group receiving the vehicle to the test compound plus d-amphetamine and the group receiving vehicle injections only.
Experimental procedure. The experiment was made in normal light conditions in an undisturbed room. The test substance was injected 30 min before s.c. before the injection of d-amphetamine sulphate (0.5 mg/kg). Immediately after injection of d-amphetamine, the rats were placed individually in the test cages that were placed in a U-frame, equipped with 4 infrared light sources and photocells. The light beams crossed the cage 4 cm above the cage floor. Recording of a motility count required interruption of adjacent light beams, thus avoiding counts induced by stationary movements of the rat. Motility (counts) was recorded for a period of 2 hours. The mean motility induced by vehicle (saline) treatment in the absence of d-amphetamine was used as baseline. The 100 percent effect of d-amphetamine was accordingly calculated to be total motility counts minus baseline. The response in groups receiving test compound was thus determined by the total motility counts minus baseline, expressed in percent of the similar result recorded in the parallel amphetamine control group. The percent responses were converted to percent inhibition from which ED50 values were calculated by means of log-probit analyses. In a parallel set of data, the potential sedative properties (motility inhibition) of the test compounds were evaluated using essentially the same procedure with the exception of not administering d-amphetamine-sulphate at the initiation of locomotor assessment.

[2] = system: DA levels in the nucleus accumbens; assay: Microdialysis: DA levels in the nucleus accumbens of freely moving rats; format: in vivo, rat; conditions: for DA level in the nucleus accumbens, % of baseline: amphetamine 0.5 mg/kg s.c. + compound 5 mg/kg s.c.
Procedure: Subjects. Male Sprague-Dawley rats (Charles River), initially weighing 275-300 g, were used. The animals were housed under a 12-hr light/dark cycle under controlled conditions for regular in-door temperature (21±2° C.) and humidity (55±5%) with food and tap water available ad libitum.
Surgery. Animals were anaesthetized with hypnorm/dormicum (2 ml/kg s.c.) and intracerebral guide cannulas (CMA/12) were stereotaxically implanted, positioning the dialysis probe tip in the nucleus accumbens (co-ordinates: 1.7 mm anterior to bregma, −1.2 mm lateral to bregma, 8.0 mm ventral to the dura). Anchor screws and acrylic cement was applied for fixation of the guide cannula. The body temperature of the animals was maintained at 37° C. by means of a rectal probe and a heating plate. The rats were allowed to recover from surgery for 2 days, housed singly in cages.
Experimental procedure. On the day of the experiment, a microdialysis probe (CMA/12, 0.5 mm diameter, 2 mm length) was inserted through the guide cannula of the conscious animal.
The probes were connected to a microinjection pump via a dual channel swivel which allowed the animals unrestricted movements. Perfusion of the microdialysis probe with filtered Ringer solution (145 mM NaCl, 3 mM KCl, 1 mM MgCl2, 1.2 mM CaCl2) was maintained for the duration of the experiment at a constant flow rate of 1 μL/min. After 180 min of stabilisation, the experiments were initiated. Dialysates were collected every 20 min. After the experiments the rats were sacrificed by decapitation, their brains removed, frozen and sliced for probe placement verification.
Administration of compounds. N-(2,6-dimethyl-4-morpholin-4-yl-phenyl)-3,3-dimethyl-butyramide (5 mg/kg) or vehicle (10% 2-hydroxy-propyl-beta-cyclodextrin, isotonic, pH 5-7) was administered subcutaneously in a volume of 2.5 ml/kg. Thirty min after the first administration dex-amphetamine sulphate (0.5 mg/kg s.c.) was administered.
Analysis of dialvsate. The concentration of dopamine (DA) in the dialysates was assessed by means of HPLC with electrochemicl detection. The dialysate constitutents were separated by reverse phase liquid chromatography (ODS 150×3 mm, […]). Mobile phase consisted of 90 mM NaH2PO4, 50 mM sodium citrate, 367 mg/l sodium 1-octanesulfonic acid, 50 μM EDTA and 8% acetonitrile (pH 4.0) at a flow rate of 0.5 mL/min. Electrochemical detection of DA was accomplished using a coulometric detector; potential set at E1=−75 mV and E2=300 mV (guard cell at 350 mV) (Coulochem II, ESA). The dialysate levels of DA in the three dialyse samples preceding the administration of compound were averaged and used as baseline level of DA (100%).
Statistical analysis. The dialysate levels of DA in the three dialyse samples preceding the administration of compound were averaged and used as baseline level of DA (100%). Data were analysed using repeated measure analyses of variance followed by post hoc tests (Tukey test), when appropriate. *p<0.05 were considered significant.

Cc1cc(N2CCOCC2)cc(C)c1NC(=O)CC(C)(C)C [N-(2,6-dimethyl-4-morpholin-4-yl-phenyl)-3,3-dimethyl-butyramide]
ED50 [1]: 2.1 mg/kg | Effect on basal extracellular DA level in the nucleus accumbens ([2]; freely moving rats, data not shown): did not significantly affected | DA level in the nucleus accumbens, % of baseline ([2]; time 0 min (baseline sample)): 91 ± 4 % of baseline | DA level in the nucleus accumbens, % of baseline ([2]; time 20 min): 112 ± 12 % of baseline | DA level in the nucleus accumbens, % of baseline ([2]; time 40 min): 227 ± 46 % of baseline | DA level in the nucleus accumbens, % of baseline ([2]; time 60 min): 262 ± 53* % of baseline | DA level in the nucleus accumbens, % of baseline ([2]; time 80 min): 195 ± 38* % of baseline | DA level in the nucleus accumbens, % of baseline ([2]; time 100 min): 172 ± 24 % of baseline | DA level in the nucleus accumbens, % of baseline ([2]; time 120 min): 166 ± 32 % of baseline | DA level in the nucleus accumbens, % of baseline ([2]; time 140 min): 129 ± 35 % of baseline | DA level in the nucleus accumbens, % of baseline ([2]; time −20 min (baseline sample)): 100 ± 3 % of baseline | DA level in the nucleus accumbens, % of baseline ([2]; time −40 min (baseline sample)): 108 ± 5 % of baseline
